Measured values reported in PubChem BioAssay (NCI).
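1) Cells in 96-well plates. 2) Compound, 48 h, 5 concentrations. 3) Linear interpolation between surrounding doses. 4) Unreached endpoint = highest concentration. TGI: concentration producing complete growth inhibition.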

What was measured:
Test in all cases: DTP human tumour cell line panel, 48 h
[1] = system: T-47D breast
[2] = system: MALME-3M melanoma
[3] = system: RPMI-8226 leukemia
[4] = system: SK-MEL-28 melanoma
[5] = system: HCC-2998 colon
[6] = system: OVCAR-5 ovarian
[7] = system: OVCAR-4 ovarian
[8] = system: SF-268 CNS
[9] = system: A498 renal
[10] = system: NCI-H23 lung
[11] = system: BT-549 breast
[12] = system: HS 578T breast
[13] = system: COLO 205 colon
[14] = system: HCT-15 colon
[15] = system: SF-539 CNS
[16] = system: SNB-19 CNS
[17] = system: K-562 leukemia
[18] = system: SR leukemia
[19] = system: UACC-257 melanoma
[20] = system: MDA-MB-435
[21] = system: SF-295 CNS
[22] = system: TK-10 renal
[23] = system: OVCAR-3 ovarian
[24] = system: CCRF-CEM leukemia
[25] = system: MDA-N
[26] = system: UACC-62 melanoma
[27] = system: HL-60(TB) leukemia
[28] = system: LOX IMVI melanoma
[29] = system: SK-MEL-5 melanoma
[30] = system: DU-145 prostate
[31] = system: CAKI-1 renal
[32] = system: HOP-92 NSCLC
[33] = system: MDA-MB-231 breast
[34] = system: RXF 393 renal
[35] = system: NCI-H226 lung
[36] = system: IGROV1 ovarian
[37] = system: U251 CNS
[38] = system: SW-620 colon
[39] = system: MCF7 breast
[40] = system: M14 melanoma
[41] = system: SNB-75 CNS
[42] = system: SK-OV-3 ovarian
[43] = system: MOLT-4 leukemia
[44] = system: HOP-62 NSCLC
[45] = system: 786-0 renal
[46] = system: OVCAR-8 ovarian
[47] = system: A549 NSCLC
[48] = system: SN12C renal
[49] = system: KM12 colon
[50] = system: UO-31 renal
[51] = system: NCI/ADR-RES ovarian
[52] = system: EKVX NSCLC
[53] = system: NCI-H460 lung
[54] = system: ACHN renal
[55] = system: PC-3 prostate
[56] = system: SK-MEL-2 melanoma
[57] = system: HT29 colon
[58] = system: HCT-116 colon
[59] = system: NCI-H522 lung

Measured: TGI

CC1OC(OC2C(O[C@@H]3C[C@@H]4CC[C@@H]5[C@H](CC[C@]6(C)C7C(C[C@@H]56)O[C@]5(CC[C@@H](C)CO5)[C@H]7C)[C@@]4(C)C[C@H]3O)OC(CO)C(O)C2O)C(O)C(O)C1O (stereo partly drawn)
3.27 µM: [14]
3.29 µM: [28]
3.21 µM: [5]
2.85 µM: [6]
3.5 µM: [8]
13.6 µM: [25]
3.7 µM: [1]
5.26 µM: [12]
4.9 µM: [3]
3.13 µM: [30]
3.15 µM: [2]
3.41 µM: [13]
3.43 µM: [4]
3.19 µM: [33]
3.28 µM: [7]
5.94 µM: [17]
3.65 µM: [34]
5.24 µM: [18]
4.15 µM: [11]
3.02 µM: [15] | [23]
33 µM: [16]
2.86 µM: [20]
3.35 µM: [19]
3.16 µM: [26]
3.22 µM: [31]
3.2 µM: [21]
5.29 µM: [9]
6.25 µM: [32]
3.06 µM: [22]
3.14 µM: [10]
6.08 µM: [35]
4.48 µM: [27]
3.52 µM: [24]
4.22 µM: [29]

O=C(Cc1ccccc1)NNc1nc(NNC(=O)c2ccncc2)nc(Nc2ccc(Cl)cc2)n1
not listed: [6] | [9] | [16] | [20] | [21] | [23] | [34] | [35] | [53] | [54] | [55] | [56] | [57] | [58] | [59]
> 10 µM: all other assays above

COc1ccc(/C(C)=N/NC(=O)c2ccncc2)cc1OC
not listed: [4] | [6] | [16] | [20] | [21] | [22] | [23] | [34] | [46] | [52] | [54] | [55] | [56] | [57] | [58] | [59]
> 10 µM: all other assays above

COC(=O)CC1(O)C(/C=C/c2ccccc2)C(C(=O)OC)C(=O)C(C(=O)OC)C1C(=O)OC (stereo not drawn)
not listed: [1] | [11] | [41]
> 100 µM: all other assays above
